In patent publication US9381349B2, “Apparatus for treating cerebral neurovascular disorders including headaches by neural stimulation” (priority 1997, dated 2016):
Entries after “also recorded” stand apart in the source; their conditions may differ. Like-named read-outs stand apart in the source and are kept apart here.

System: acute migraine episodes
Assay type: in vivo, human
Set-up: key to Pain Rating After Administration: 0 = no pain, 10 = worst pain imaginable
Conditions: for Mean Time Until Maximal Effect: no unit in table (minutes); for Pain Rating After Administration / Pain Relief: mean; for Pain Rating After Administration / Pain Relief / Rate of Pain Relief (migraine pain reduction per minute per gram of drug): 10-point pain scale
From the text: The purpose of the experiments described in this Example was to determine the efficacy of dorsonasal administration of ropivacaine for inhibition of acute migraine episodes. Ropivacaine was dorsonasally administered to individual patients experiencing head pain, other symptoms, or both, believed to be associated with an acute migraine episode. Patients assessed head pain prior to and after ropivacaine administration.
Ropivacaine-HCl (NAROPINT™, Astra USA, Westborough, Mass.) was used as the commercially-available 0.75% (w/v) solution, and was obtained in 30 milliliter, sterile injectable vials.
Three methods were used to achieve dorsonasal delivery of ropivacaine to individual patients. Ropivacaine was administered to a first group of patients by an intranasal drip method. Ropivacaine was administered to a second group using cotton swabs, the absorbent portions of which were saturated with the ropivacaine solution. Ropivacaine was administered to patients in a third group by spraying the ropivacaine solution into each nostril, using either a squeeze-type spray bottle or a metered-dose spray bottle.
The intranasal drip method used to administer ropivacaine to the first group of patients was a based on the method described by Barre (1982, Headache 22:69-73), except that the ropivacaine solution was used in place of the solution used by Bane. Approximately 0.75 milliliter to approximately 1.0 milliliter of the ropivacaine solution was administered by way of each of the nostrils of each patient.
The cotton swab method used to administer ropivacaine to the second group of patients comprised gently inserting cotton swabs, sequentially and bilaterally, into the nostrils of patients and urging the swabs dorsally until their absorbent portions contacted portions of nasal epithelium located dorsal to the middle conchae. Each swab was left in place for approximately one minute, and was then withdrawn. Approximately 0.5 milliliter of the ropivacaine solution was delivered to each nostril using this method.
Patients in a third group were administered ropivacaine by spraying less than about 0.5 milliliter of the ropivacaine solution into each of the patient's nostrils using either a sterile squeeze bottle or a sterile metered-dose spray bottle of known design. The design and operation of each of these spray bottles are well known in the art.
Prior to administration of ropivacaine, each patient was placed in a supine position with the patient's head hyperextended approximately 45 degrees and rotated approximately 30 degrees to the right side. In this position, an imaginary line extending from the region of the nasal epithelium overlying the SPG of the patient through the patient's left nostril was approximately vertical. Ropivacaine was then administered to the left nostril of the patient as described for each of the three groups of patients. Ropivacaine was administered to each patient's right nostril after rotating the patient's head approximately 30 degrees to the left. Ropivacaine was administered to both nostrils of each patient to prevent cases of unilateral migraine from developing into contralateral migraine.
Prior to ropivacaine administration, each patient rated perceived headache pain according to a standard pain scale of the type used in the art. Patients were asked to rank the severity of pain which they were experiencing on a scale from 0 (no pain) to 10 (worst pain imaginable). This ten-point pain rating scale is analogous to, but has more gradations than, the four-point rating system used by the International Headache Society (IHS; Headache Classification Committee of the International Headache Society, 1988, Cephalalgia 8(Suppl. 7):19-28). Ropivacaine was administered to one nostril of each patient, and then to the other. The time required to administer ropivacaine to both nostrils of each patient was approximately three minutes. […]

[1] = ropivacaine 0.75% (w/v), 2 Metered Sprays per nostril, individual patients, pain scale 0-10
[2] = ropivacaine 0.75% (w/v), 2 Sprays per nostril (squeeze bottle), individual patients, pain scale 0-10
[3] = ropivacaine 0.75% (w/v), 2 cc Drops (nasal drip), individual patients, pain scale 0-10
[4] = ropivacaine 0.75% (w/v), Sat'd Cotton Swab, individual patients, pain scale 0-10
[5] = ropivacaine 0.75% (w/v), Sat'd Cotton Swab, individual patients, pain scale 0-10, listed as R
[6] = ropivacaine vs literature rizatriptan data (Kramer et al.)
[7] = ropivacaine, Cotton Swab, 24 patients
[8] = ropivacaine, Nasal Drops, 3 patients
[9] = ropivacaine, Nasal Spray, 10 patients
[10] = ropivacaine, nasal drops, three patients

CCCN1CCCC[C@H]1C(=O)Nc1c(C)cccc1C [Ropivacaine, ropivacaine]
Adverse effects of administration (human, in vivo): one patient experienced an allergic response to ropivacaine administration | Apparent allergic reaction (human, in vivo): allergic reaction between 5 | Oropharyngeal numbness (human, in vivo): 6 | Time to half maximal inhibition of CNvD or symptom (intranasal or dorsonasal administration): within about three minutes | Pain 10 min post-treatment [1]: Pain 10 min post-treatment: 0 | Pain 15 min post-treatment [1]: Pain 15 min post-treatment: 5 | Pain 20 min post-treatment [1]: Pain 20 min post-treatment: 3 | Pain 45 min post-treatment [1]: Pain 45 min post-treatment: 0 | Pain 60 min post-treatment [1]: Pain 60 min post-treatment: 2 | Pain 90 min post-treatment [1]: Pain 90 min post-treatment: 0 | Pain 2 min post-treatment [2]: Pain 2 min post-treatment: 0 | Pain 10 min post-treatment [2]: Pain 10 min post-treatment: 0 | Pain 15 min post-treatment [2]: Pain 15 min post-treatment: 2 | Pain 20 min post-treatment [2]: 0 | Pain 30 min post-treatment [2]: 0 | Pain 3 min post-treatment [3]: Pain 3 min post-treatment: 0 | Pain 60 min post-treatment [3]: Pain 60 min post-treatment: 0 | Pain 15 min post-treatment (ropivacaine 0.75% (w/v), 2 cc Drops (nasal drip), individual patients, pain scale 0-10, listed as R): Pain 15 min post-treatment: 0; also recorded: Pain 15 min post-treatment: 5 | Persistence of residual pain (ropivacaine 0.75% (w/v), Sat'd Cotton Swab, P#40): Level 5 pain endured 8 hours | Pain 1 min post-treatment [4]: Pain 1 min post-treatment: 0 | Pain 8 min post-treatment [4]: Pain 8 min post-treatment: 0 | Pain 15 min post-treatment [4]: Pain 15 min post-treatment: 0 | Pain 30 min post-treatment [4]: Pain 30 min post-treatment: 5 | Pain 18 hrs post-treatment [4]: Pain 18 hrs post-treatment: 8 | Pain 24 hours post-treatment [4]: Pain 24 hours post-treatment: 1 | Pain 2 min post-treatment [5]: Pain 2 min post-treatment: 1; also recorded: Pain 2 min post-treatment: 0 | Pain 3 min post-treatment [5]: Pain 3 min post-treatment: 0; also recorded: Pain 3 min post-treatment: 1 | Pain 5 min post-treatment [5]: Pain 5 min post-treatment: 0; also recorded: Pain 5 min post-treatment: 1; also recorded: Pain 5 min post-treatment: 2 | Pain 10 min post-treatment [5]: Pain 10 min post-treatment: 1; also recorded: Pain 10 min post-treatment: 0 | Pain 20 min post-treatment [5]: Pain 20 min post-treatment: 3; also recorded: Pain 20 min post-treatment: 0 | Patients with significant pain reduction (ropivacaine 0.75% (w/v), cotton swab): 100% | Effectiveness to reduce pain associated with migraine (ropivacaine 0.75% (w/v), dorsonasal spray): 100% | Pain following spray (ropivacaine 0.75% (w/v), retreated with 2 Sprays 18 hrs after swab treatment (P#14), pain scale 0-10): 0 | Response rate compared with lidocaine (FIG. 3) (ropivacaine vs literature lidocaine data (Maizels et al.)): nearly two-fold greater response rate | Rebound rate compared with rizatriptan [6]: lower than the rebound rate following rizatriptan administration | Response rate compared with rizatriptan [6]: greater than the response rate obtained by administration of rizatriptan | Onset of relief and response rate compared with sumatriptan (FIG. 3) (ropivacaine vs literature subcutaneous sumatriptan data): earlier onset of relief and a higher response rate | Mean Reduction in Pain Rating [7]: 8.64 IHS points | Mean Time Until Maximal Effect [7]: 7.41 | Pain Rating After Administration (ropivacaine, Cotton Swab): 0.33 | Pain Relief (ropivacaine, Cotton Swab): 8.73 | Rebound Rate (ropivacaine, Dorsonasal Spray): 10% | Relative Efficacy (Rate of Pain Relief divided by that of intranasally spray-administered lidocaine) (ropivacaine, Dorsonasal Spray): 2.45 | Rate of Pain Relief (migraine pain reduction per minute per gram of drug) (ropivacaine, Dorsonasal Spray): 24.5 | Rebound Rate (ropivacaine, Dorsonasal Swab): 4% | Relative Efficacy (Rate of Pain Relief divided by that of intranasally spray-administered lidocaine) (ropivacaine, Dorsonasal Swab): 15.5 | Rate of Pain Relief (migraine pain reduction per minute per gram of drug) (ropivacaine, Dorsonasal Swab): 155 | Rate of Pain Relief (ropivacaine, Nasal Drops): 1.25 IHS points per minute | Mean Reduction in Pain Rating [8]: 9.00 IHS points | Mean Time Until Maximal Effect [8]: 26.0 | Pain Rating After Administration (ropivacaine, Nasal Drops): 0.00 | Pain Relief (ropivacaine, Nasal Drops): 9.00 | Rate of Pain Relief (ropivacaine, Nasal Spray): 0.287 IHS points per minute | Mean Reduction in Pain Rating [9]: 6.22 IHS points | Mean Time Until Maximal Effect [9]: 33.9 | Pain Rating After Administration (ropivacaine, Nasal Spray): 1.00 | Pain Relief (ropivacaine, Nasal Spray): 6.22 | Patients with complete relief (ropivacaine, all routes): 72% | Patients with migraine inhibited / significant (greater than 50%) reduction of migraine severity (ropivacaine, all routes, thirty-seven migraine patients): 92% | Average reduction in perceived pain (ropivacaine, all routes, within one hour, usually within 15 minutes or less): 90% | Rebound of migraine, patients (ropivacaine, all routes, within twenty-four hours of treatment): 5.4% | Mean time between treatment and perception of the peak effect (ropivacaine, cotton swab): 7.41 ± 1.47 min | Patients achieving a pain severity rating of zero (ropivacaine, cotton swab): 72% | Patients achieving a pain severity rating of zero or one (ropivacaine, cotton swab): 95% | Patients with rebound (ropivacaine, cotton swab): 4% | Rate of Pain Relief (ropivacaine, cotton swab): 2.32 IHS points per minute | Mean peak headache severity rating reduction (ropivacaine, cotton swab, twenty-four patients): 8.73±0.249 points | Mean post-administration pain severity rating at the time of peak effect (ropivacaine, cotton swab, twenty-four patients, mean±standard error, out of 10 points): 0.33±0.14 points | Potency relative to intranasally spray-administered lidocaine (pain relief per unit weight) (ropivacaine, dorsonasally spray-administered): 2.4 times | Potency relative to intranasally spray-administered lidocaine (pain relief per unit weight) (ropivacaine, dorsonasally swab-administered): more than 15 times | Mean time between treatment and perception of the peak effect [10]: 26.00 ± 17.37 min | Migraine rebound [10]: None of the three patients experienced migraine rebound | Mean peak headache severity rating reduction (ropivacaine, nasal drops, three patients, out of 10 points): 9.00 points | Mean time between treatment and perception of the peak effect (ropivacaine, nasal spray, ten patients): 33.9 ± 8.48 min | Mean peak headache severity rating reduction (ropivacaine, nasal spray, ten patients, out of 10 points): 6.22±0.66 points | Mean headache pain severity rating reduction in patients without complete relief (ropivacaine, nasal spray, the remainder of ten patients): 87.5±6.49% | Patients without rebound (ropivacaine, patients observed for up to seven days): 95%
